Here are results for 1 compound from patent US10092620B2, “Uses of cyclic peptides for treating and preventing atherosclerosis” (THE SCRIPPS RESEARCH INSTITUTE, priority 2013, dated 2018).

The subject of the assay is human plasma HDL. The assay can be described thus: human plasma HDL remodeling (NDGGE, immunoblot for human apoA-I). It counts as biochemical. As to conditions: human plasma in vitro; Western blot for apoA-I; FIGS. 1 and 2a. From the text: As an initial phase of investigation, we evaluated in vitro the effectiveness of our cyclic D,L-α-peptides to remodel mature human plasma HDLs into lipid-poor HDL (FIG. 1 and FIG. 2a). Lipid-poor HDL particles are key acceptors of cholesterol in reverse cholesterol transport and are thus crucial for combating atherosclerosis. In fact, with respect to the cholesterol efflux capacity of human sera, the levels of lipid-poor HDL correlate much better than the levels of HDL-cholesterol or apoA-I. Briefly, our assay involved incubating human plasma with a peptide, after which the plasma sample was subjected to non-denaturing gradient gel electrophoresis (NDGGE) to separate the HDL subspecies and then immunoblotted for human apoA-I. The ranked activities of the cyclic D,L-α-peptides in promoting formation of lipid-poor HDL are shown in FIG. 1. It should be noted that there are inherent variabilities associated with electrophoretic transfer, staining, and densitometric quantitation, so the peptide ranking should be viewed as an approximate guide to relative plasma HDL remodeling efficacy. Nevertheless, the rankings were similar overall whether the panel was assayed by using peptide stock solutions prepared in 10% sucrose/H2O (FIGS. 1 and 2a) or peptide stock solutions prepared in 1:1 DMSO/H2O. From these preliminary structure-activity relationship (SAR) studies, we identified a pronounced sequence dependence for efficient plasma HDL remodeling (vide infra).
Human plasma remodeling: All procedures involving human samples were approved by TSRI Institutional Review Board. Procedures were modified from those reported in Troutt et al., J. Lipid Res. 49, 581-587, 2008. Blood samples from normal healthy human donors were obtained from TSRI Normal Blood Donor Program. EDTA-anticoagulated whole blood was centrifuged at 1500×g for 15 min within 1 h of being drawn from the donor. The plasma layer was aliquoted and used immediately or frozen at −80° C. for future use. Peptide stock solutions were prepared at ˜15 mM peptide in 50% DMSO for initial screenings, or at ˜2 mM peptide in 10% sucrose for remodeling assays at lower concentrations (FIG. 1) and cholesterol efflux assays (FIG. 2). Plasma samples (30 μL) were treated with peptide stocks, and the samples were incubated at 37° C. for 0.5-1 h, and then quenched by adding 270 μL of 50% sucrose (1:9 dilution). Samples were mixed with 6× native loading buffer (125 mM tris, pH 6.8, 0.02% bromophenol, 20% glycerol), of which 6 μL was loaded onto a 4-20% polyacrylamide gel. The molecular weight ladder used was High Molecular Weight Calibration Kit (Amersham Biosciences, #17-0445-01). […] The films were scanned and quantified by densitometry using the program LabWorks (v. 4.0.0.8). […]
(Immunoblotting shows a protein as a band on a membrane.)

Non-standard residues stand in square brackets, D forms with d. Residues, ends and D or L forms follow the SMILES beside them.

In the case of `CC(C)C[C@@H]1NC(=O)[C@@H](Cc2c[nH]c3ccccc23)NC(=O)[C@H](CCCNC(=N)N)NC(=O)[C@@H](CCC(=O)O)NC(=O)[C@H](CCC(N)=O)NC(=O)[C@@H](CCC(=O)O)NC(=O)[C@H](CCCNC(=N)N)NC(=O)[C@@H](Cc2c[nH]c3ccccc23)NC1=O` [SEQ ID NO:1, c[wLwReQeR]] (cyclo([dW]L[dW]R[dE]Q[dE]R)), the “plasma HDL remodeling to lipid-poor HDL (in words)” value is reported as “considerably more active than any of four analogs”.
